According to patent US12343326B2, “Psychoactive medicines and their use for treating psychiatric and neurological conditions and disorders” (Transcend Therapeutics, Inc., priority 2021, dated 2025):

Experiments:
Test in all cases: β-arrestin based GPCR screen (PathHunter / GPCRmax), agonist mode
Assay type in all cases: cell-based
Set-up in all cases: host or cells: PathHunter cell lines
168 GPCRs [1] = biological target: 168 GPCRs (Homo sapiens, UniProt O95136)
Method: (§1) For agonist determination, cells were incubated with sample to induce response. […] Vehicle concentration was 1%.

168 GPCRs [2] = biological target: 168 GPCRs (Homo sapiens, UniProt P08588); details: ADRB1, Agonist
Sequence of 168 GPCRs (Homo sapiens, UniProt P08588) (P08588 whole entry): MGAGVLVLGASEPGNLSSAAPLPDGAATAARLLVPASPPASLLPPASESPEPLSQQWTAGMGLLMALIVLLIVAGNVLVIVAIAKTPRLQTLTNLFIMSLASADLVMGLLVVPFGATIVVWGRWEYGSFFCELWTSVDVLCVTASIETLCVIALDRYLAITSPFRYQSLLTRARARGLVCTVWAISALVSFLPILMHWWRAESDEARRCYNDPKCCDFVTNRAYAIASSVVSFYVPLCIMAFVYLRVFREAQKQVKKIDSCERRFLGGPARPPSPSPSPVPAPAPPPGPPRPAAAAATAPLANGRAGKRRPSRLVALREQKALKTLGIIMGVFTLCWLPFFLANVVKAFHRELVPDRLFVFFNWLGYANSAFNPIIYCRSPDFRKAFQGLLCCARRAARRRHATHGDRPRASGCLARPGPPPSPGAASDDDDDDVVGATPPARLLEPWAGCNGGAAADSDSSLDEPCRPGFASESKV
Method: as §1

168 GPCRs [3] = biological target: 168 GPCRs (Homo sapiens, UniProt P21453)
Sequence of 168 GPCRs (Homo sapiens, UniProt P21453) (P21453 whole entry): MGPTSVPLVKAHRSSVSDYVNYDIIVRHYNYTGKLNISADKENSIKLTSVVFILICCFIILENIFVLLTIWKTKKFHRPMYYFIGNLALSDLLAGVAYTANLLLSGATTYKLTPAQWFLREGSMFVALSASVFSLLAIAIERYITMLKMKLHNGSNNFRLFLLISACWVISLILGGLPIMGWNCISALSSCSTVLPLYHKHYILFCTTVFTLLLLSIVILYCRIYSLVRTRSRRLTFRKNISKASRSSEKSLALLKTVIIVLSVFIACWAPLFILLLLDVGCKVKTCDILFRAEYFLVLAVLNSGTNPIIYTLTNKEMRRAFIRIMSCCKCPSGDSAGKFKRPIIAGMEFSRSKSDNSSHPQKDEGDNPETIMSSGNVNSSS
Method: as §1

168 GPCRs [4] = biological target: 168 GPCRs (Homo sapiens, UniProt P25090)
Sequence of 168 GPCRs (Homo sapiens, UniProt P25090) (P25090 whole entry): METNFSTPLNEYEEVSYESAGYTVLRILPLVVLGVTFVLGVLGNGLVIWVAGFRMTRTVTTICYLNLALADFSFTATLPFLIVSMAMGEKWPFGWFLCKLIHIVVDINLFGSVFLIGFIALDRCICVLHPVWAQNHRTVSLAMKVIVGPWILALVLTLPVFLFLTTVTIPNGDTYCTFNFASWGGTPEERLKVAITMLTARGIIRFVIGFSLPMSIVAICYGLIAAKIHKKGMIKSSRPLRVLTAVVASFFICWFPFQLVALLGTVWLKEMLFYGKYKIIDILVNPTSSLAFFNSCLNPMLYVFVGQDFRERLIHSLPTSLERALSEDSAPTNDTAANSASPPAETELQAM
Method: as §1

168 GPCRs [5] = biological target: 168 GPCRs (Homo sapiens, UniProt P25929); details: NPY1R
Method: as §1

168 GPCRs [6] = biological target: 168 GPCRs (Homo sapiens, UniProt P28336); details: NMBR
Sequence of 168 GPCRs (Homo sapiens, UniProt P28336) (P28336 whole entry): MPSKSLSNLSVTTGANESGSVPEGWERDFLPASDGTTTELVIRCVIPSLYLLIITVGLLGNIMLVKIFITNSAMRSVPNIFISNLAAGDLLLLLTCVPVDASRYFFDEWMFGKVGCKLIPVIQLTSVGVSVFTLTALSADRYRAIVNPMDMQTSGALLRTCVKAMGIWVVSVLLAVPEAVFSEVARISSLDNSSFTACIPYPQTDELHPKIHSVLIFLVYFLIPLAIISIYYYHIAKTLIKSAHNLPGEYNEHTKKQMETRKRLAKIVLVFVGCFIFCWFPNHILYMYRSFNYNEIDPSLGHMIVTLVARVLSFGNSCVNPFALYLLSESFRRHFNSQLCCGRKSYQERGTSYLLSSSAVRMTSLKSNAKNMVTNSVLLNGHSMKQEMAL
Method: as §1

168 GPCRs [7] = biological target: 168 GPCRs (Homo sapiens, UniProt P30872)
Method: as §1

168 GPCRs [8] = biological target: 168 GPCRs (Homo sapiens, UniProt P32241)
Method: as §1

168 GPCRs [9] = biological target: 168 GPCRs (Homo sapiens, UniProt P32745)
Method: as §1

168 GPCRs [10] = biological target: 168 GPCRs (Homo sapiens, UniProt P34972)
Sequence of 168 GPCRs (Homo sapiens, UniProt P34972) (P34972 whole entry): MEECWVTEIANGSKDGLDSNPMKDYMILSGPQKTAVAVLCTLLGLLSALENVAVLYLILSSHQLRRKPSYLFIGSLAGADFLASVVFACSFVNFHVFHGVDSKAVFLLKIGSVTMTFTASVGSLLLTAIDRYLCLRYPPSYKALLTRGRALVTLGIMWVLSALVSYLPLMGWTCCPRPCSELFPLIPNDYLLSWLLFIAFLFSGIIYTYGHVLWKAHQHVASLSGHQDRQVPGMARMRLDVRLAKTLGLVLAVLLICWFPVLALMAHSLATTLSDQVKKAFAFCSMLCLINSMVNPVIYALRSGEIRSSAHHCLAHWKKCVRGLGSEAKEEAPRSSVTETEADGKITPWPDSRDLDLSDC
Method: as §1

168 GPCRs [11] = biological target: 168 GPCRs (Homo sapiens, UniProt P35368); details: ADRA1B, Agonist
Method: as §1

168 GPCRs [12] = biological target: 168 GPCRs (Homo sapiens, UniProt P35408)
Sequence of 168 GPCRs (Homo sapiens, UniProt P35408) (P35408 whole entry): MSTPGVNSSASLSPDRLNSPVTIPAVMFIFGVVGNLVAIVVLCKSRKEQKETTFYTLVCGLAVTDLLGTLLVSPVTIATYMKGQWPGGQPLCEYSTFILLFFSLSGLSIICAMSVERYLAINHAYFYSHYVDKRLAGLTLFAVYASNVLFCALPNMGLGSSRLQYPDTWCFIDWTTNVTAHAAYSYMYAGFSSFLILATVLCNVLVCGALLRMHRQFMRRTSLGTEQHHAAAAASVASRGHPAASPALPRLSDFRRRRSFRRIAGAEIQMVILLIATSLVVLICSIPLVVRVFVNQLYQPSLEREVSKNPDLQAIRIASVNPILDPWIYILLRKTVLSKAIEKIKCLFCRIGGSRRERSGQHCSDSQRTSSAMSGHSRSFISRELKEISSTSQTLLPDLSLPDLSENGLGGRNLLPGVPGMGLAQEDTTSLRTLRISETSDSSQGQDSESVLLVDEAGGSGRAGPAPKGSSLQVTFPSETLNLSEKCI
Method: as §1

168 GPCRs [13] = biological target: 168 GPCRs (Homo sapiens, UniProt P41597); details: CCR2, Agonist
Sequence of 168 GPCRs (Homo sapiens, UniProt P41597) (P41597 whole entry): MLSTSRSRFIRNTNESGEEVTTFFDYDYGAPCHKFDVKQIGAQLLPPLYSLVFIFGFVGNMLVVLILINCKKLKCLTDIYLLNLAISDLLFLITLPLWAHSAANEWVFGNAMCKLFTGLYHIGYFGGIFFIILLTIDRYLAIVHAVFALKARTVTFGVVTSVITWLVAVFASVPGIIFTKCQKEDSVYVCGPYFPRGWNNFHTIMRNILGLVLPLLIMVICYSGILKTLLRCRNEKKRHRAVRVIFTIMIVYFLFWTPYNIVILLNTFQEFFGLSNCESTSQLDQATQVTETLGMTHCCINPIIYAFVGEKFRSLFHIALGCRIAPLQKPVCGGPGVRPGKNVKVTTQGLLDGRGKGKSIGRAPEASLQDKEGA
Method: as §1

168 GPCRs [14] = biological target: 168 GPCRs (Homo sapiens, UniProt P46092); details: CCR10, Agonist
Method: as §1

168 GPCRs [15] = biological target: 168 GPCRs (Homo sapiens, UniProt P48546); details: GIPR
Sequence of 168 GPCRs (Homo sapiens, UniProt P48546) (P48546 22-466): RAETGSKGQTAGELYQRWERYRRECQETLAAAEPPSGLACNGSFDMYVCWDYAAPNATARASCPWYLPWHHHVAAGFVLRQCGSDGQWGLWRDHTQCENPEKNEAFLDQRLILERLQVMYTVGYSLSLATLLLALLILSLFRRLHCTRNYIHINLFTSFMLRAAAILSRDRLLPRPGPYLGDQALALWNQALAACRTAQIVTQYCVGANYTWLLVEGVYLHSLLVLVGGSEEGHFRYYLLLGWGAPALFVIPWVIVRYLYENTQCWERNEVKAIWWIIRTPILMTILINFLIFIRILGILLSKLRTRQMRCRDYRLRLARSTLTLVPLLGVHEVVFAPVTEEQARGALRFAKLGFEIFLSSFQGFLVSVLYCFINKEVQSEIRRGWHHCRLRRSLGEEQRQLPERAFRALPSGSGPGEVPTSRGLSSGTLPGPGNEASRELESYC
Method: as §1

168 GPCRs [16] = biological target: 168 GPCRs (Homo sapiens, UniProt P49190)
Sequence of 168 GPCRs (Homo sapiens, UniProt P49190) (P49190 25-550): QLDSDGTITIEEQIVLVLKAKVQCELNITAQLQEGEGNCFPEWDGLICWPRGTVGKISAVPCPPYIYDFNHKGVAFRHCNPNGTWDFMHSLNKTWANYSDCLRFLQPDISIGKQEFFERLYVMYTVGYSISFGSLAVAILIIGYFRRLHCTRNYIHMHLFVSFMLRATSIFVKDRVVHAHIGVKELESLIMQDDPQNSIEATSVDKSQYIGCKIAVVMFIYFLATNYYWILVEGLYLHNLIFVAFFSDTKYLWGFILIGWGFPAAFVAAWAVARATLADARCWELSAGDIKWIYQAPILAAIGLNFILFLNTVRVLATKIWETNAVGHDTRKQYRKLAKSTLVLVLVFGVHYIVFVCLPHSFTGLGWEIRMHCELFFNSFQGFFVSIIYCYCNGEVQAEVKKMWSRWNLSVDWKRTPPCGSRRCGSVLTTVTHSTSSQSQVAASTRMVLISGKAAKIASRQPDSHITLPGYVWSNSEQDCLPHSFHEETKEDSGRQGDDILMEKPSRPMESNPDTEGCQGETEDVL
Method: as §1

168 GPCRs [17] = biological target: 168 GPCRs (Homo sapiens, UniProt P51582)
Sequence of 168 GPCRs (Homo sapiens, UniProt P51582) (P51582 whole entry): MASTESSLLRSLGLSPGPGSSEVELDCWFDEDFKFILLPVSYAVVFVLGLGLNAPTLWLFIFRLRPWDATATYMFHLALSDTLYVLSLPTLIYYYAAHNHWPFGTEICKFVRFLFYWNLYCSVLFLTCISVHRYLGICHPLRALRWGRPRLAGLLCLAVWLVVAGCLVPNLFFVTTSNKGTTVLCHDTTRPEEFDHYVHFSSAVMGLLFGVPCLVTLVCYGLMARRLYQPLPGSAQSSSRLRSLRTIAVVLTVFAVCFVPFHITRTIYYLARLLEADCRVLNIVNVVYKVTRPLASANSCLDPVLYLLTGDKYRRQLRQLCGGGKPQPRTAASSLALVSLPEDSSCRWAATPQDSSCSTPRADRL
Method: as §1

168 GPCRs [18] = biological target: 168 GPCRs (Homo sapiens, UniProt Q8TDS5)
Sequence of 168 GPCRs (Homo sapiens, UniProt Q8TDS5) (Q8TDS5 whole entry): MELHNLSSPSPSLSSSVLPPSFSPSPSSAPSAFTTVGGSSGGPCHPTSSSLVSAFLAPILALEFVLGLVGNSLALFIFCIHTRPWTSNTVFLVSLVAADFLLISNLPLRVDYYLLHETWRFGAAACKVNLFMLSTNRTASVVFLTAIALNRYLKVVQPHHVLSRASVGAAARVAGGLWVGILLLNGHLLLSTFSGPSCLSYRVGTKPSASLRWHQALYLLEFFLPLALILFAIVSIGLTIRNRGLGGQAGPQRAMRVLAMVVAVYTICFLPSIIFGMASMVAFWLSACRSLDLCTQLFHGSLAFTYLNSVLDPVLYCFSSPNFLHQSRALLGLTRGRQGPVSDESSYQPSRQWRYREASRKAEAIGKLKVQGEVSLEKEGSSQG
Method: as §1

168 GPCRs [19] = biological target: 168 GPCRs (Homo sapiens, UniProt Q9H1C0)
Sequence of 168 GPCRs (Homo sapiens, UniProt Q9H1C0) (Q9H1C0 whole entry): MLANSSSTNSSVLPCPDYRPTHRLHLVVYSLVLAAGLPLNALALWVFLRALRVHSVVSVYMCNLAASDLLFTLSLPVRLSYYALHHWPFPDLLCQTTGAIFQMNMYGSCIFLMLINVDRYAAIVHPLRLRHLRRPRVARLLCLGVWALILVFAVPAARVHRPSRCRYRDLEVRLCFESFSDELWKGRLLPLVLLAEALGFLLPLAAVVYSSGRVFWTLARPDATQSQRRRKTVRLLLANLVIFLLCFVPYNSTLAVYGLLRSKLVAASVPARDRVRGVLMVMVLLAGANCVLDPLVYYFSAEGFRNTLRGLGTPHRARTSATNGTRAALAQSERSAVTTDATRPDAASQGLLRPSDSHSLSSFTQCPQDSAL
Method: as §1

168 GPCRs [20] = biological target: T1, 168 GPCRs (Homo sapiens, UniProt Q9Y5Y4)
T1 sequence (Q9Y5Y4 1-395): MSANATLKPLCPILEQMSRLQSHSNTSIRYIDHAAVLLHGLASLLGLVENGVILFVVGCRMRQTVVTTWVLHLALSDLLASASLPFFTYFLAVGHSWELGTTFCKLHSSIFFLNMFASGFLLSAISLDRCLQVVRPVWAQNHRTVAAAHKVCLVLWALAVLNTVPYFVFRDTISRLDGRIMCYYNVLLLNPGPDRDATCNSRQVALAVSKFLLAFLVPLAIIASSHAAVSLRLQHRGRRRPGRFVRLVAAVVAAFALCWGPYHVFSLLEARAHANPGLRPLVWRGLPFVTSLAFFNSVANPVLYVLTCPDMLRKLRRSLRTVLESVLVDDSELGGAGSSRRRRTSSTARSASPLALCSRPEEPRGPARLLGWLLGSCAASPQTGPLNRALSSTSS
Method: as §1

Structure (SMILES): CNC(C)C(=O)c1ccc2c(c1)OCO2 (stereo not shown) [methylone, 3,4-methylenedioxy-N-methylcathinone]
- activity at 10 µM (168 GPCRs [1]; EDG5, Agonist mode, 10 uM): 3.7%
- activity at 1 µM (168 GPCRs [1]; EDG5, Agonist, 1 uM): -4.7%
- activity at 1 µM (168 GPCRs [2]; 1 uM): -1.7%
- activity at 10 µM (168 GPCRs [2]; 10 uM): -1.4%
- activity at 10 µM (168 GPCRs [3]; EDG1, Agonist mode, 10 uM): 0.4%
- activity at 1 µM (168 GPCRs [3]; EDG1, Agonist, 1 uM): 0.1%
- activity at 10 µM (168 GPCRs [4]; FPRL1, Agonist mode, 10 uM): 0.1%
- activity at 1 µM (168 GPCRs [4]; FPRL1, Agonist, 1 uM): -0.5%
- activity at 10 µM (168 GPCRs [5]; Agonist mode, 10 uM): -4.9%
- activity at 1 µM (168 GPCRs [5]; Agonist, 1 uM): -2.2%
- activity at 10 µM (168 GPCRs [6]; Agonist mode, 10 uM): 1.2%
- activity at 1 µM (168 GPCRs [6]; Agonist, 1 uM): 1.1%
- activity at 10 µM (168 GPCRs [7]; SSTR1, Agonist mode, 10 uM): -7.4%
- activity at 1 µM (168 GPCRs [7]; SSTR1, Agonist, 1 uM): -5.3%
- activity at 10 µM (168 GPCRs [8]; VIPR1, Agonist mode, 10 uM): 0.6%
- activity at 1 µM (168 GPCRs [8]; VIPR1, Agonist, 1 uM): 0.3%
- activity at 10 µM (168 GPCRs [9]; SSTR3, Agonist mode, 10 uM): 0.3%
- activity at 1 µM (168 GPCRs [9]; SSTR3, Agonist, 1 uM): 0.7%
- activity at 10 µM (168 GPCRs [10]; CNR2, Agonist mode, 10 uM): 3.2%
- activity at 1 µM (168 GPCRs [10]; CNR2, Agonist, 1 uM): 7%
- activity at 1 µM (168 GPCRs [11]; 1 uM): -3.3%
- activity at 10 µM (168 GPCRs [11]; 10 uM): -2.9%
- activity at 10 µM (168 GPCRs [12]; PTGER4, Agonist mode, 10 uM): -1.4%
- activity at 1 µM (168 GPCRs [12]; PTGER4, Agonist, 1 uM): -2.8%
- activity at 1 µM (168 GPCRs [13]; 1 uM): -0.4%
- activity at 10 µM (168 GPCRs [13]; 10 uM): -0.5%
- activity at 1 µM (168 GPCRs [14]; 1 uM): -2%
- activity at 10 µM (168 GPCRs [14]; 10 uM): -1.8%
- activity at 10 µM (168 GPCRs [15]; Agonist mode, 10 uM): -5.8%
- activity at 1 µM (168 GPCRs [15]; Agonist, 1 uM): -2.9%
- activity at 10 µM (168 GPCRs [16]; PTHR2, Agonist mode, 10 uM): -0.5%
- activity at 1 µM (168 GPCRs [16]; PTHR2, Agonist, 1 uM): -0.6%
- activity at 10 µM (168 GPCRs [17]; P2RY4, Agonist mode, 10 uM): 4.1%
- activity at 1 µM (168 GPCRs [17]; P2RY4, Agonist, 1 uM): -3.3%
- activity at 10 µM (168 GPCRs [18]; OXER1, Agonist mode, 10 uM): -3.7%
- activity at 1 µM (168 GPCRs [18]; OXER1, Agonist, 1 uM): 3.2%
- activity at 10 µM (168 GPCRs [19]; GPR92, Agonist mode, 10 uM): -3.5%
- activity at 1 µM (168 GPCRs [19]; GPR92, Agonist, 1 uM): -1.6%
- activity at 10 µM (168 GPCRs [20]; CRTH2, Agonist mode, 10 uM): -5%
- activity at 1 µM (168 GPCRs [20]; CRTH2, Agonist, 1 uM): -5.7%
